This is an account of results in patent US20210254000A1, “PROCESS FOR PRODUCING A T CELL COMPOSITION” (Juno Therapeutics, Inc., priority 2017, published 2021).

Read-outs that look alike come from different tables or passages of the source.

Experiment [1] has as its system Ribo-S6 phosphorylation. As to the kind of experiment: Inhibition of ribosomal protein S6 phosphorylation in stimulated primary human T cells (flow cytometry). Format: cell-based. The procedure:
The dose effect of exemplary mTOR kinase inhibitors in primary human T cells was assessed by monitoring inhibition of ribosomal protein S6.
CD4+ and CD8+ T cells were isolated by immunoaffinity-based enrichment from leukapheresis samples from human donor subjects. Isolated CD4+ and CD8+ T cells were mixed 1:1 and stimulated with anti-CD3/anti-CD28 magnetic beads in the presence of increasing concentrations of an mTOR kinase inhibitor, PI-103, Compound 155, Compound 63, or Compound 246. The T cell cultures were incubated overnight (approximately 16 hr) at 37° C. Following incubation in the presence of PI-103, Compound 155, Compound 63, or Compound 246, T cells were assessed for intracellular S6 phosphorylation and co-stained for surface expression of CD4 or CD8, by flow cytometry.

Experiment [2] concerns phospho-S6. Nature of the experiment: Antigen-dependent CAR signaling (phospho-S6) in expanded CAR-T cells. It is filed as cell-based, human. Conditions: cells expanded with 200 nM PI-103 or 1 μM Compound 63, washed; 20 hours co-culture 1:1. How it is done: (§1) Separate compositions of CD4+ and CD8+ cells were isolated from three human donors, activated and transduced with a viral vector encoding an anti-CD19 CAR substantially as described in Example 2. After transduction, the CD4+ and CD8+ T cells derived from each donor were separately incubated for 8 days in the presence of a mTOR kinase inhibitor to expand T cells substantially as described in Example 2, except in the presence of 200 nM PI-103, 1 μM Compound 63, or with DMSO vehicle or media only controls. CD4+ and CD8+ T cells from each donor were then separately harvested, formulated, and cryofrozen. The cryofrozen engineered CD4+ and CD8+ T cells were thawed, washed to remove compound, and cells from the same donor were then combined at a ratio of 1:1 viable CD4+/CAR+ to viable CD8+/CAR+ T cells to produce an expanded anti-CD19 CAR-T cell composition containing CD4+ and CD8+ T cells. Functional activities of the generated anti-CD19 CAR-T cell compositions were assessed.
Antigen-dependent signaling of CAR-T cells among generated anti-CD19 CAR-T cell compositions was assessed by monitoring activation of phospho-S6. […] After 20 hours, cells were assessed, for intracellular S6 phosphorylation and co-stained for surface expression of CD4 or CD8, by flow cytometry.

Experiment [3] deals with anti-CD19 CAR-T cells co-cultured with irradiated K562-CD19 target cells. As to the kind of experiment: Cytokine secretion after antigen stimulation (Luminex). It is filed as cell-based, human. Conditions: cells expanded with 200 nM PI-103 or 1 μM Compound 63; E:T 1:1, ~16 hours. How it is done: as §1
To measure cytokines following antigen stimulation, cells from the generated anti-CD19 CAR-T cell compositions were co-cultured with irradiated K562-CD19 target cells or K562 parental target cells at an effector:target cell ratio of 1:1. After overnight (˜16 hours) culture, cell culture supernatants were harvested and TNF-alpha, IFN-gamma, and IL-2 cytokine production were measured using a Luminex Multiplex Assay. The fold-change of cytokine production observed in co-culture supernatants was determined from generated anti-CD19 CAR-T cell compositions expanded in the presence of PI-103, Compound 63, or DMSO vehicle compared to cells expanded in media only.

Experiment [4] relates to anti-CD19 CAR-T cells stimulated with irradiated K562-CD19 target cells. Nature of the experiment: Secondary cytokine response after anti-idiotype bead expansion. It is filed as cell-based, human. Conditions: for secondary cytokine production following subsequent stimulation with antigen: cells harvested at day 11 after anti-idiotype bead expansion, K562-CD19 1:1, approximately 16 hours.

Experiment [5] deals with CD4+ and/or CD8+ T cells. As to the kind of experiment: RNA-Seq gene expression of CAR-T cells expanded with inhibitor. Format: cell-based, human. To be noted: FDR≤10%. How it is done:
Gene expression among cells of the generated anti-CD19 CAR-T cell compositions described in Example 2, generated by expanding the cells in the presence of PI-103, Compound 63, DMSO vehicle, or media only, was assessed by RNA sequencing (RNA-Seq). RNA was extracted from compositions generated from three donors under each expansion condition and an assessment of the whole-transcriptome was performed by RNA-Seq. FPKM and FPKQ values were determined; FPKQ values were log-transformed (log 2). Gene expression was determined by comparing expression profiles of CD4+, CD8+ or combined CD4+/CD8+ cells among cells of the generated anti-CD19 CAR-T cell compositions that were expanded in the presence of media only, PI-103, or Compound 63, as compared to cells expanded with DMSO vehicle. Gene products were identified that were different among each groups based on analysis of a volcano plot by imposing cutoff of FDR≤10% between the two conditions.

The test system of experiment [6] is CD19-expressing target cells. Nature of the experiment: Cytolytic activity of CAR-T cells (mixed CD4+/CD8+ process). It is filed as cell-based, human. To be noted: CAR-T cells prepared with 2 μM PI103 or 1 μM Compound 63; freshly thawed or day 14; 3:1 effector to target. The procedure:
Separate compositions of CD4+ and CD8+ cells were selected from isolated PBMCs from a leukapheresis sample from the same human donor by immunoaffinity based selection, and the selected cell compositions were cryofrozen. The separate compositions of CD4+ and CD8+ T cells were subsequently thawed and mixed at a ratio of 1:1 of viable CD4+ T cells to viable CD8+ T cells. In this study, the mixed CD4+ and CD8+ cell populations were incubated in the presence of Compound 63, PI103 or no inhibitor (DMSO vehicle control) beginning at the initiation of stimulation. In more detail, the mixed CD4+ and CD8+ T cell composition was stimulated (in the presence or absence of an inhibitor, as indicated) in the presence of paramagnetic polystyrene-coated beads with attached anti-CD3 and anti-CD28 antibodies for between 18 to 30 hours, and were then transduced with a lentiviral vector encoding an anti-CD19 CAR. […]
Cytolytic activity of the generated CAR-T cells was assessed by culturing the generated CAR-T cells, either freshly thawed or at day 14 of restimulation from above, with CD19-expressing target cells at a 3:1 effector to target ratio. Target cell death was quantitated over time. The tumor cell growth area under the curve (AUC) of signal over time for each concentration was determined. A killing index was calculated as the inverse of the area under the tumor cell growth curve (1/AUC).

The mark [7] stands for this setting: Homo sapiens, T-cell, CD8+ T cells, read-out: IC50 for inhibition of Ribo-S6 phosphorylation, CD8.
The mark [8] stands for this setting: Homo sapiens, CD4+ T cells, read-out: IC50 for inhibition of Ribo-S6 phosphorylation, CD4.
Where [9] appears, read: T-cell, primary human CD4+/CD8+ T cells mixed 1:1, anti-CD3/anti-CD28 beads, approximately 16 hr, read-out: IC50 for the inhibition of S6 phosphorylation in the T cells.

As to `CC(C)c1ccccc1-n1c(=O)[nH]c2c(C(N)=O)nc(-c3cccc(O)c3)nc21` [Compound 63, 2-(3-Hydroxyphenyl)-9-(2-isopropylphenyl)-8-oxo-8,9-dihydro-7H-purine-6-carboxamide], the IC50 in experiment [1] (setting [7]) is 503 nM; in experiment [1] (setting [8]) it was 468 nM; in experiment [1] (setting [9]), about 500 nM. In experiment [2], the “phospho-S6 staining after antigen stimulation vs DMSO vehicle or media only” value is reported as “similar”. Further, in experiment [3], the “cytokine production (TNF-alpha, IFN-gamma, IL-2) compared to control cells” value is listed as “improvements in cytokine production”. Moreover, the “production of IFN-gamma compared to control cells” value in experiment [3] was “improved”. The “secondary cytokine production following subsequent stimulation with antigen” value in experiment [4] is listed as “improved secondary cytokine production”. Further, the “frequency of CD8+ T cells that were CD107a+IFNγ+” value in experiment [4] (some donor-derived cells, day 11, Golgi Inhibitor 4 hours) is “increased frequency of CD8+ T cells that were CD107a+IFNγ+ cells”. Besides, the “gene expression (RNA-Seq) compared to cells expanded with DMSO vehicle” value in experiment [5] is listed as “significantly changed gene expression”. For the same compound, in experiment [6], the “target cell killing (killing index 1/AUC) compared to CAR-T cells prepared with DMSO” value is listed as “improved target cell killing”.
On to `Oc1cccc(-c2nc(N3CCOCC3)c3oc4ncccc4c3n2)c1` [PI-103, reference compound], for which the IC50 is 88.4 nM in experiment [1] (setting [7]), 121 nM in experiment [1] (setting [8]) and about 100 nM in experiment [1] (setting [9]). For the same compound, in experiment [2], the “phospho-S6 staining after antigen stimulation vs DMSO vehicle or media only” value is reported as “similar”. The “cytokine production (TNF-alpha, IFN-gamma, IL-2) compared to control cells” value in experiment [3] is listed as “improvements in cytokine production”. In addition, the “production of IFN-gamma compared to control cells” value in experiment [3] was “improved”. For the same compound, the “secondary cytokine production following subsequent stimulation with antigen” value in experiment [4] is “improved secondary cytokine production”. For the same compound, the “gene expression (RNA-Seq) compared to cells expanded with DMSO vehicle” value in experiment [5] was “significantly changed gene expression”. In addition, the “target cell killing (killing index 1/AUC) compared to CAR-T cells prepared with DMSO” value in experiment [6] is “improved target cell killing”.

What is called IC50 is the concentration that inhibits the measured activity by half.
